Several values for one entry are separate records, joined by “and”; a condition that tells them apart may be missing. Equal entries are not always repeated.
What follows are compounds tested against 72 kDa type IV collagenase (Homo sapiens, UniProt P08253) (assay: Inhibitory activity against matrix metalloprotease-2 (MMP-2).).
Chain of 72 kDa type IV collagenase (P08253 whole entry): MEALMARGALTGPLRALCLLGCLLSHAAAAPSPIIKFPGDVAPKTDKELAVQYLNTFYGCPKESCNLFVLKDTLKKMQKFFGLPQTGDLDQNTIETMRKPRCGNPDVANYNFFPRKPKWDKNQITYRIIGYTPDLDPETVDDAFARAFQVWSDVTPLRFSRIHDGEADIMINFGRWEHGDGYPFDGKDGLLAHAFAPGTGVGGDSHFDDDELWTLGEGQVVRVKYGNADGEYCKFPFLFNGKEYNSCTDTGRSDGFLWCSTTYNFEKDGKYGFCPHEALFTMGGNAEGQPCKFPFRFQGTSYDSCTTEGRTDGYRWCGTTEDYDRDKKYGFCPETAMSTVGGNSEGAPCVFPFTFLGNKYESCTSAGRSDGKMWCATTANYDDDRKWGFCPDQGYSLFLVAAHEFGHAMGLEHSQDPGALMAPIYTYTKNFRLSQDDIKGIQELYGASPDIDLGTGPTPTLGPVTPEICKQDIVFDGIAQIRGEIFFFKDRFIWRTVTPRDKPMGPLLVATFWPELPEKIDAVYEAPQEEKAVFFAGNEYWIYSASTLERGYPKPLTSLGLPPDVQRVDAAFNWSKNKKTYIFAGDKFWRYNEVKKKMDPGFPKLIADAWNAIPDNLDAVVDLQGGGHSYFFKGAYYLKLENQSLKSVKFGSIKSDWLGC

| IC50 | Compound |
| --- | --- |
| 370 µM | CCC(C)N(CC(=O)NO)C(=O)CN(CCCc1ccccc1)C(=O)Nc1ccc(Oc2ccccc2)cc1 (stereo not given) |
| > 500 µM | CCCCCN(CC(=O)NO)C(=O)CN(CCCCc1ccccc1)C(=O)Nc1cc(Cl)ccc1OC |
| 110 µM | CCC(C)N(CC(=O)NO)C(=O)CN(Cc1ccccc1)C(=O)Nc1cccc2ccccc12 (stereo not given) |
| > 500 µM | O=C(CN(CC1CCCCC1)C(=O)CN(CCCc1ccccc1)C(=O)Nc1ccc(Oc2ccccc2)cc1)NO |
| 125 µM | O=C(CN(Cc1ccccc1)C(=O)CN(CC1CCCCC1)C(=O)Nc1ccc(Oc2ccccc2)cc1)NO |
| 150 µM | CCCCCCCN(CC(=O)NO)C(=O)CN(CCCc1ccccc1)C(=O)Nc1ccc(Oc2ccccc2)cc1 |
| > 500 µM | CC(C)(C)N(CC(=O)NO)C(=O)CN(CCCc1ccccc1)C(=O)Nc1ccc(Oc2ccccc2)cc1 |
| 100 µM | CCCCCN(CC(=O)NO)C(=O)CN(CCCc1ccccc1)C(=O)Nc1ccc(Oc2ccccc2)cc1 |
| 230 µM | CCCCN(CC(=O)NO)C(=O)CN(CCCc1ccccc1)C(=O)Nc1ccc(Oc2ccccc2)cc1 |
| 100 µM | CCCC(C)N(CC(=O)NO)C(=O)CN(CCCc1ccccc1)C(=O)Nc1ccc(Oc2ccccc2)cc1 (stereo in doubt; form 2) |
| 150 µM | CC(C)(C)N(CC(=O)N(CC(=O)NO)CC1CCCCC1)C(=O)Nc1ccc(Oc2ccccc2)cc1 |
| 114 µM | CCCCCCCN(CC(=O)N(CCc1ccc(F)cc1)CC(=O)NO)C(=O)Nc1ccc(Oc2ccccc2)cc1 |
| 60 µM | CCCCCCCN(CC(=O)NO)C(=O)CN(CCCCC)C(=O)Nc1ccc(Oc2ccccc2)cc1 |
| > 500 µM | CCCCN(CC(=O)NO)C(=O)CN(CC1CCCCC1)C(=O)Nc1ccc([N+](=O)[O-])cc1C |
| 51 µM | CCCCN(CC(=O)NO)C(=O)CN(CCc1ccc(F)cc1)C(=O)Nc1ccc(Oc2ccccc2)cc1 |
| 160 µM | CCCCCN(CC(=O)NO)C(=O)CN(C(=O)Nc1ccc(Oc2ccccc2)cc1)C(C)CCC (stereo not given) |
| 150 µM | CSc1ccccc1NC(=O)N(CCCc1ccccc1)CC(=O)N(CC(=O)NO)C(C)(C)C |
| 54 µM | CCCCN(CC(=O)N(CC(=O)NO)C(C)CC)C(=O)Nc1ccc(Oc2ccccc2)cc1 (stereo not given) |
| 120 µM | CCCC(C)N(CC(=O)NO)C(=O)CN(C(=O)Nc1ccc2ccccc2c1)C1CCCc2ccccc21 (stereo not given) |
| 23 µM | CCCC(C)N(CC(=O)NO)C(=O)CN(CCCc1ccccc1)C(=O)Nc1ccc(Oc2ccccc2)cc1 (stereo in doubt; form 1) |

Continued, compound first:

| Compound | IC50 |
| --- | --- |
| O=C(CN(CCCc1ccccc1)C(=O)CN(Cc1ccccc1)C(=O)Nc1ccc(Oc2ccccc2)cc1)NO | 43 µM |
| O=C(CN(C(=O)CN(C(=O)Nc1ccc(Oc2ccccc2)cc1)C1CCCc2ccccc21)C1CCCc2ccccc21)NO (stereo not given) | 60 µM |
| O=C(CN(CCCCc1ccccc1)C(=O)CN(CCCCc1ccccc1)C(=O)Nc1ccc(Oc2ccccc2)cc1)NO | 52 µM |
| CC(C)N(CC(=O)NO)C(=O)CN(CCc1ccc(F)cc1)C(=O)Nc1ccc(Oc2ccccc2)cc1 | 90 µM |
| O=C(CN(C(=O)CN(C(=O)Nc1ccc(Oc2ccccc2)cc1)C(c1ccccc1)c1ccccc1)C(c1ccccc1)c1ccccc1)NO | 50 µM |
| O=C(CN(CCCCc1ccccc1)C(=O)CN(CCCc1ccccc1)C(=O)Nc1ccc(Oc2ccccc2)cc1)NO | 0.9 µM and 0.3 µM |
| CC(C)N(CC(=O)N(CC(=O)NO)C(C)(C)C)C(=O)Nc1ccc(Oc2ccccc2)cc1 | 155 µM |
| O=C(CN(CCc1ccc(F)cc1)C(=O)CN(CCCc1ccccc1)C(=O)Nc1ccc(Oc2ccccc2)cc1)NO | 40 µM |
| O=C(CN(C(=O)CN(CCCc1ccccc1)C(=O)Nc1ccc(Oc2ccccc2)cc1)C1CCCc2ccccc21)NO (stereo not given) | > 500 µM |
| O=C(CN(Cc1ccccc1)C(=O)CN(CCCc1ccccc1)C(=O)Nc1ccc(Oc2ccccc2)cc1)NO | 0.3 µM |
| CC(C)N(CC(=O)NO)C(=O)CN(CCCc1ccccc1)C(=O)Nc1ccc(Oc2ccccc2)cc1 | > 500 µM |
| O=C(CN(C(=O)CN(CCCc1ccccc1)C(=O)Nc1ccc(Oc2ccccc2)cc1)C(c1ccccc1)c1ccccc1)NO | 200 µM |
| CCCCCCCN(CC(=O)NO)C(=O)CN(C(=O)Nc1ccc(OCCCC)cc1)C(c1ccccc1)c1ccccc1 | > 500 µM |
| CCC(C)N(CC(=O)N(CC(=O)NO)C(C)C)C(=O)Nc1ccc(Oc2ccccc2)cc1 (stereo not given) | 72 µM |
| O=C(CN(CCCc1ccccc1)C(=O)CN(CCCc1ccccc1)C(=O)Nc1ccc(Oc2ccccc2)cc1)NO | 2 µM |
